The nature of data set [1]: Solubility of delivery agent compound. It counts as physicochemical. The conditions noted are these: 350 µl 2N NaOH + 650 µl water, aqueous buffer, thermodynamic from solid; 200 mg+350 μl 2N NaOH+650 μl H2O, pH=7.67. As for the experimental part:
The reaction mixture was warmed to 25° C. and stirred for 64 hours. The volatiles were removed in vacuo. The residue was stirred in 2N aqueous sodium hydroxide for one hour and acidified with 2M aqueous sulfuric acid. The solid was recrystallized twice from ethanol/water to give a tan solid. Isolation by filtration afforded 53.05 g of (52% yield) of 2-(4-(N-salicyloyl) aminophenyl) propionic acid. Solubility: 200 mg/mL (200 mg+350 μl 2N NaOH+650 μl H2O, pH=7.67). Anal. Calculated: C=67.36, H=5.3, N=4.91. Found: C=67.05, H=5.25, N=4.72.
A solution of 53.05 g (0.186 mol) of 2-(4-(N-salicyloyl)aminophenyl) propionic acid and 300 mL of ethanol was treated with 7.59 g (0.190 mol) of NaOH dissolved in 22 mL of water. The reaction mixture was stirred for 30 minutes at 25° C. and for 30 minutes at 0° C. The resulting pale yellow solid was isolated by filtration to give 52.61 g of sodium 2-(4-(N-salicyloyl) aminophenyl) propionate. Solubility: 200 mg/mL clear solution, pH=6.85. Anal. Calculated: C=60.45, H=5.45, N=3.92, Na=6.43. Found: C=60.84, H=5.87, N=3.85, Na=6.43. Melting point 236-238° C.

The text below walks through data of US7309698B2, “Compositions for delivering bisphosphonates” (Emisphere Technologies, Inc., priority 2001, dated 2007).

“And” between values parts separate entries of the source, which are not always exact repeats. Equal entries are not always repeated.

As a reminder, the melting point is the temperature, or range, at which the solid turns liquid. On to `CC(C(=O)[O-])c1ccc(NC(=O)c2ccccc2O)cc1.[Na+]` (stereo not drawn) [Compound 4 Sodium Salt, Sodium 2-(4-(N-salicyloyl)aminophenyl)propionate], for which the melting point lay within 236 to 238 °C.

For orientation: solubility means the dissolved amount per volume that the medium holds. Regarding `CC(C(=O)O)c1ccc(NC(=O)c2ccccc2O)cc1` (stereo not drawn) [Compound 4, 2-(4-(N-salicyloyl)aminophenyl)propionic acid], in data set [1], the solubility worked out at 200 mg/mL.

With `O=C(O)CCCCCCCOc1ccccc1O` [Compound 7, 8-(2-Hydroxyphenoxy)octanoic acid], the melting point was 65 to 68 °C and 60 to 64 °C.
